From patent publication US20110207119A1, “METHODS FOR PREDICTING A CANCER PATIENT'S RESPONSE TO SUNITINIB” (priority 2010, published 2011)

System: primary breast carcinoma cultures
Assay: in vitro chemoresponse assay on primary breast carcinoma cultures (DAPI nuclei count, aAUC of dose response curve)
Assay type: cell-based
Settings: 39 primary breast cancer cultures, single agent, 10 doses 0.108-55.3 μM, 72 hours
Method: After assay development, thirty-nine primary breast carcinoma cultures were treated with sunitinib at the doses shown in Table 1.
All specimens treated with the drug were confirmed to contain a majority of epithelial cells (>65%) via immunocytochemistry. A 10-dose range of drug concentrations was used to treat the cell line and breast specimens for 72 hours. After treatment, the cultures were fixed with ethanol, and stained with DAPI. Any cells remaining adherent after treatment were considered live, and the DAPI stained nuclei were counted. The resulting dose response curves were analyzed.
aAUC values were calculated, essentially as follows:
(Xi is the normalized cell count of dose i)

CCN(CC)CCNC(=O)c1c(C)[nH]c(/C=C2\C(=O)Nc3ccc(F)cc32)c1C [sunitinib, Sunitinib]
share of breast specimens responsive to sunitinib (aAUC of ≦7.85) (3 of 39): 7.6%
share of breast specimens with intermediate response (aAUC of 7.85-9.22) (8 of 39): 20.5%
share of breast specimens non-responsive to the drug (aAUC of ≧9.22) (28 of 39): 71.7%
